pIC50: −log10 of the molar value.

T1 sequence (P35968 806-1356): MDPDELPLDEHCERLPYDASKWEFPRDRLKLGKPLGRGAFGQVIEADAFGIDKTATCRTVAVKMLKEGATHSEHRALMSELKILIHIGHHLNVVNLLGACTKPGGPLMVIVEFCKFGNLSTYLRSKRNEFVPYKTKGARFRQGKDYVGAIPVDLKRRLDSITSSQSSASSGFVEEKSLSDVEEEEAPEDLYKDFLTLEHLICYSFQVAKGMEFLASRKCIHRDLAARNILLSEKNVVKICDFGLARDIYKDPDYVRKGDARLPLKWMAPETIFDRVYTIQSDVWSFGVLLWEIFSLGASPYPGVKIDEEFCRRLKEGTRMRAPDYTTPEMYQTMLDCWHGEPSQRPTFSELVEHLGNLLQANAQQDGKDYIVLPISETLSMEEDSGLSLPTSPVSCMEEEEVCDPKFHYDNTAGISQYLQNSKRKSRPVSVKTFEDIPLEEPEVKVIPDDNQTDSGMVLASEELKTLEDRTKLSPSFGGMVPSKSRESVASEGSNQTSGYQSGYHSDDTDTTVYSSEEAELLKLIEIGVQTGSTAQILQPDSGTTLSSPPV

The test concerns the target T1, VEGFR2 (KDR) (Homo sapiens, UniProt P35968).
T1 construct: made in house; host or cells: Sf9 cells (Spodoptera frugiperda), baculovirus (Bac-to-Bac)
The test is described as follows: In Vitro Receptor Tyrosine Kinase Assay (VEGF Receptor KDR). The note with it: recombinant GST-VEGFR2 806-1356, DELFIA assay, ATP 0.6 uM, enzyme 5 nM; read-out: VEGFR_IC50_UM. Type of test: biochemical. The source says:
In Vitro Receptor Tyrosine Kinase Assay (VEGF Receptor KDR)
This test measures the ability of compounds to inhibit the enzymatic activity of recombinant human VEGF receptor enzymatic activity.
A 1.6-kb cDNA corresponding to the catalytic domain of VEGFR2 (KDR) (Genbank accession number AF035121 amino acid 806 to 1356) is cloned into the Pst I site of the pDEST20 Gateway vector (Invitrogen) for the production of a GST-tagged version of that enzyme. This construct is used to generate recombinant baculovirus using the Bac-to-Bac™ system according to the manufacturer's instructions (Invitrogen).
The GST-VEGFR2806-1356 protein is expressed in Sf9 cells (Spodoptera frugiperda) upon infection with recombinant baculovirus construct. Briefly, Sf9 cells grown in suspension and maintained in serum-free medium (Sf900 II supplemented with gentamycin) at a cell density of about 2×10^6 cells/ml are infected with the above-mentioned viruses at a multiplicity of infection (MOI) of 0.1 during 72 hours at 27° C. with agitation at 120 rpm on a rotary shaker. Infected cells are harvested by centrifugation at 398 g for 15 min. Cell pellets are frozen at […] until purification is performed.
All steps described in cell extraction and purification are performed at 4° C. Frozen Sf9 cell pellets infected with the GST-VEGFR2806-1356 recombinant baculovirus are thawed and gently resuspended in Buffer A (PBS pH 7.3 supplemented with 1 μg/ml pepstatin, 2 μg/ml Aprotinin and leupeptin, 50 μg/ml PMSF, 50 μg/ml TLCK and 10 μM E64 and 0.5 mM DTT) using 3 ml of buffer per gram of cells. Suspension is Dounce homogenized and 1% Triton X-100 is added to the homogenate after which it is centrifuged at 22500 g, 30 min., 4° C. The supernatant (cell extract) is used as starting material for purification of GST-VEGFR2806-1356.
The supernatant is loaded onto a GST-agarose column (Sigma) equilibrated with PBS pH 7.3. Following a four column volume (CV) wash with PBS pH 7.3+1% Triton X-100 and 4 CV wash with buffer B (50 mM Tris pH 8.0, 20% glycerol and 100 mM NaCl), bound proteins are step eluted with 5 CV of buffer B supplemented with 5 mM DTT and 15 mM glutathion. GST-VEGFR2806-1356 enriched fractions from this chromatography step are pooled based on U.V. trace i.e. fractions with high O.D.280. Final GST-VEGFR2806-1356 protein preparations concentrations are about 0.7 mg/ml with purity approximating 70%. Purified GST-VEGFR2806-1356 protein stocks are aliquoted and frozen at −80° C. prior to use in enzymatic assay.
Inhibition of VEGFR/KDR is measured in a DELFIA™ assay (Perkin Elmer). The substrate poly(Glu4,Tyr) is immobilized onto black high-binding polystyrene 96-well plates. The coated plates are washed and stored at 4° C. During the assay, the enzyme is pre-incubated with inhibitor and Mg-ATP on ice in polypropylene 96-well plates for 4 minutes, and then transferred to the coated plates. The subsequent kinase reaction takes place at 30° C. for 10-minutes. ATP concentrations in the assay are 0.6 uM for VEGFR/KDR (2× the Km). Enzyme concentration is 5 nM. After incubation, the kinase reactions are quenched with EDTA and the plates are washed. Phosphorylated product is detected by incubation with Europium-labeled anti-phosphotyrosine MoAb. After washing the plates, bound MoAb is detected by time-resolved fluorescence in a Gemini SpectraMax reader (Molecular Devices). Compounds are evaluated over a range of concentrations, and IC50 values (concentration of compounds giving 50% inhibition of enzymatic activity) are determined.
As to `CN1CCN(Cc2ccc(-c3cc4nccc(Oc5ccc(NC(=O)NC6CN(C)C6)cc5F)c4s3)nc2)CC1` [Compound 19, 1-(3-Fluoro-4-(2-(5-((4-methylpiperazin-1-yl)methyl)pyridin-2-yl)thieno[3,2-b]pyridin-7-yloxy)phenyl)-3-(1-methylazetidin-3-yl)urea], the pIC50 was 6.01.

Regarding `CC(=O)N1CC(NC(=O)Nc2ccc(Oc3ccnc4cc(-c5ccc(CN6CCC(NC(=O)OC(C)(C)C)CC6)cn5)sc34)c(F)c2)C1` [Compound 40, tert-Butyl 1-((6-(7-(4-(3-(1-acetylazetidin-3-yl)ureido)-2-fluorophenoxy)thieno[3,2-b]pyridin-2-yl)pyridin-3-yl)methyl)piperidin-4-ylcarbamate], the pIC50 is 6.55. For the compound `CC(=O)N1CC(NC(=O)Nc2ccc(Oc3ccnc4cc(-c5ccc(CN6CCC(N)CC6)cn5)sc34)c(F)c2)C1` [Compound 41, 1-(1-Acetylazetidin-3-yl)-3-(4-(2-(5-((4-aminopiperidin-1-yl)methyl)pyridin-2-yl)thieno[3,2-b]pyridin-7-yloxy)-3-fluorophenyl)urea], the pIC50 was 7.11. With `CC(=O)N1CC(NC(=O)Nc2ccc(Oc3ccnc4cc(-c5ccc(CN6CCC(NC(=O)CO)CC6)cn5)sc34)c(F)c2)C1` [Compound 43, N-(1-((6-(7-(4-(3-(1-Acetylazetidin-3-yl)ureido)-2-fluorophenox)thieno[3,2-b]pyridin-2-yl)pyridin-3-yl)methyl)piperidin-4-yl)-2-hydroxyacetamide], the pIC50 is 7.21. Take `CCNC(=O)NC1CCN(Cc2ccc(-c3cc4nccc(Oc5ccc(NC(=O)NC6CN(C(C)=O)C6)cc5F)c4s3)nc2)CC1` [Compound 44]: the pIC50 was 6.80. With `CNC1CCN(Cc2ccc(-c3cc4nccc(Oc5ccc(NC(=O)NC6CN(C(C)=O)C6)cc5F)c4s3)nc2)CC1` [Compound 45], the pIC50 is 7.15. As for `CC(=O)N1CC(NC(=O)Nc2ccc(Oc3ccnc4cc(-c5ccc(CN6CC(NC(=O)OC(C)(C)C)C6)cn5)sc34)c(F)c2)C1` [Compound 46-A], the figure is 6.86; as for `CC(=O)N1CC(NC(=O)Nc2ccc(Oc3ccnc4cc(-c5ccc(CN6CC(N)C6)cn5)sc34)c(F)c2)C1` [Compound 46], 6.89; as for `CC(=O)N1CC(NC(=O)Nc2ccc(Oc3ccnc4cc(-c5ccc(CN6CCN(C(=O)CO)CC6)cn5)sc34)c(F)c2)C1` [Compound 47-A], 7.17. As for `CC(=O)N1CC(NC(=O)Nc2ccc(Oc3ccnc4cc(-c5ccc(CN6CCC(N(C)C(=O)CO)CC6)cn5)sc34)c(F)c2)C1` [Compound 47], the figure is 7.49. As for `CC(=O)N1CC(NC(=O)Nc2ccc(Oc3ccnc4cc(-c5ccc(CN6CC(NC(=O)CO)C6)cn5)sc34)c(F)c2)C1` [Compound 48], the pIC50 is 7.21.

In the case of `CN1CCN(Cc2ccc(-c3cc4nccc(Oc5ccc(NC(=O)NC6CN(C(=O)OC(C)(C)C)C6)cc5F)c4s3)nc2)CC1` [Compound 50, tert-Butyl 3-(3-(3-fluoro-4-(2-(5-((4-methylpiperazin-1-yl)methyl)pyridin-2-yl)thieno[3,2-b]pyridin-7-yloxy)phenyl)ureido)azetidine-1-carboxylate], the pIC50 was 7.46. For the compound `CC(=O)N1CC(NC(=O)Nc2ccc(Oc3ccnc4cc(-c5ccc(CN6CCN(C)CC6)cn5)sc34)c(F)c2)C1` [Compound 51], the pIC50 is 7.00. In the case of `CN1CCN(Cc2ccc(-c3cc4nccc(Oc5ccc(NC(=O)NC6CN(C(=O)Cc7ccccc7)C6)cc5F)c4s3)nc2)CC1` [Compound 53] it was 7.24; in that of `CN1CCN(Cc2ccc(-c3cc4nccc(Oc5ccc(NC(=O)NC6CN(S(C)(=O)=O)C6)cc5F)c4s3)nc2)CC1` [Compound 54], 7.44. On to `Cc1ccc(S(=O)(=O)N2CC(NC(=O)Nc3ccc(Oc4ccnc5cc(-c6ccc(CN7CCN(C)CC7)cn6)sc45)c(F)c3)C2)cc1` [Compound 55], for which the pIC50 is 8.00.

The record behind these values is patent publication US20130090327A1, “Inhibitors of Protein Tyrosine Kinase Activity” (METHYLGENE INC., priority 2011, published 2013).
